Experimental data taken from the supplement of paper PMC10307832.

Experiments:
Assay in all cases: relative viability (nuclei count vs DMSO), 5 days (fraction); higher = more cells survive
Daporinad + AZD7762 = compound: O=C(/C=C/c1cccnc1)NCCCCC1CCN(C(=O)c2ccccc2)CC1 [Daporinad] + NC(=O)Nc1cc(-c2cccc(F)c2)sc1C(=O)N[C@H]1CCCNC1 [AZD7762] (partner 0.2 µM)
In short: (§1)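 Relative viability divides the nuclei count in treated wells by that in vehicle wells. Lung cancer cell lines were seeded in 1536-well plates, dosed by pin tool the next day, and fixed and stained after 5 days in one step with final 0.05% Triton X-100, 1% formaldehyde and 1 ug/ml Hoechst. Dosing was a single drug or a fixed anchor-drug dose plus five library-drug doses (not always all listed) in √10 steps, and values are medians of duplicate plates imaged at 4×.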

R406 + Luminespib = compound: COc1cc(Nc2ncc(F)c(Nc3ccc4c(n3)NC(=O)C(C)(C)O4)n2)cc(OC)c1OC [R406] + CCNC(=O)c1noc(-c2cc(C(C)C)c(O)cc2O)c1-c1ccc(CN2CCOCC2)cc1 [Luminespib] (partner 0.01 µM)
In short: as §1

R406 + Olaparib = compound: COc1cc(Nc2ncc(F)c(Nc3ccc4c(n3)NC(=O)C(C)(C)O4)n2)cc(OC)c1OC [R406] + O=C(c1cc(Cc2n[nH]c(=O)c3ccccc23)ccc1F)N1CCN(C(=O)C2CC2)CC1 [Olaparib] (partner 8 µM)
In short: as §1

Daporinad + Pictilisib = compound: O=C(/C=C/c1cccnc1)NCCCCC1CCN(C(=O)c2ccccc2)CC1 [Daporinad] + CS(=O)(=O)N1CCN(Cc2cc3nc(-c4cccc5[nH]ncc45)nc(N4CCOCC4)c3s2)CC1 [Pictilisib] (partner 1 µM)
In short: as §1

Cell Line	relative viability (Daporinad + AZD7762; first compound 0.0005 µM)	relative viability (Daporinad + AZD7762; first compound 0.001581 µM)	relative viability (Daporinad + AZD7762; first compound 0.005 µM)	relative viability (Daporinad + AZD7762; first compound 0.01581 µM)	relative viability (R406 + Luminespib; first compound 0.08 µM)	relative viability (R406 + Luminespib; first compound 0.253 µM)	relative viability (R406 + Luminespib; first compound 0.8 µM)	relative viability (R406 + Luminespib; first compound 2.53 µM)	relative viability (R406 + Luminespib; first compound 8 µM)	relative viability (R406 + Olaparib; first compound 0.08 µM)	relative viability (R406 + Olaparib; first compound 0.253 µM)	relative viability (R406 + Olaparib; first compound 0.8 µM)	relative viability (R406 + Olaparib; first compound 2.53 µM)	relative viability (R406 + Olaparib; first compound 8 µM)	relative viability (Daporinad + Pictilisib; first compound 0.0005 µM)	relative viability (Daporinad + Pictilisib; first compound 0.001581 µM)	relative viability (Daporinad + Pictilisib; first compound 0.005 µM)	relative viability (Daporinad + Pictilisib; first compound 0.01581 µM)
NCI-H522	0.808	1.13	0.816	0.538	1.09	1.31	1.32	0.841	1.04	0.518	0.578	0.713	0.636	0.511	–	–	–	–
NCI-H1299	–	–	–	–	–	–	–	–	–	0.972	0.986	0.957	1.05	0.731	0.736	0.809	0.839	0.739
NCI-H1650	–	–	–	–	0.185	0.196	0.194	0.184	0.182	0.911	0.808	0.798	0.787	0.647	0.503	0.727	0.715	0.733
NCI-H2009	–	–	–	–	1.05	1.09	1.04	0.884	0.993	0.687	0.706	0.844	0.489	0.546	0.784	1	0.938	0.661
SW 900	0.647	–	0.72	0.654	0.18	0.186	0.177	0.125	0.117	0.956	0.855	0.57	0.492	0.115	–	–	–	–
SK-MES-1	–	–	–	–	0.863	0.858	0.957	0.232	0.137	0.613	0.677	0.715	0.327	0.174	0.296	0.4	0.345	0.306
HCC-366	0.255	–	0.247	0.268	–	–	–	–	–	0.33	0.391	0.349	0.316	0.0913	0.14	0.167	0.152	0.201
A549	–	–	–	–	–	–	–	–	–	0.28	0.464	0.328	0.0554	0.306	0.548	0.529	0.61	0.469
NCI-H520	–	–	–	–	0.225	0.25	0.293	0.271	0.226	0.314	0.34	0.329	0.194	0.126	0.346	0.29	0.29	0.187
NCI-H1563	–	–	–	–	0.542	0.654	0.475	0.485	0.452	–	–	–	–	–	0.639	0.642	0.605	0.701
